This passage reports TGI and GI50 results from PubChem BioAssay (NCI).

Common to all, as to test: NCI tumour cell line growth inhibition, 48 h
In assay [1] the test system is A498 renal.
In assay [2] the test system is ACHN renal.
The test system of assay [3] is HT29 colon.
The subject of assay [4] is M14 melanoma.
In assay [5] the test system is OVCAR-3 ovarian.
For assay [6], the system named is OVCAR-4 ovarian.
In assay [7] the test system is SF-268 CNS.
For assay [8], the system named is SK-OV-3 ovarian.
Assay [9] concerns SN12C renal.
Assay [10] deals with UO-31 renal.

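Briefly, cells in 96-well plates were exposed to five compound concentrations for 48 h, and endpoints were estimated by linear interpolation. The concentration for 50% growth inhibition is given as GI50. Definition used: TGI = concentration required for complete inhibition of growth.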

As to `C=CC1(C(=O)O)CCC(C(C)(C)C)CC1` (stereo not drawn), the TGI in assay [1], in [2], in assay [3], in assay [4], in assay [5] and in [6] was over 100 µM throughout. Moreover, the TGI in assay [7], in [8], in [9] and in assay [10] was over 100 µM each time.
Regarding `ClCc1cccc(Cn2cnc3c(NC45CC6CC(CC(C6)C4)C5)ncnc32)c1`, the GI50 is 15.4 µM in assay [1]; 15.4 µM in assay [2]; 23.9 µM in [3]; 12.1 µM in [4]; 17.6 µM in assay [5]; 15.5 µM in [6]. The GI50 was 12 µM in assay [7], 21.1 µM in assay [8], 21.2 µM in [9] and 14.5 µM in [10]. The TGI in assay [1] is 31.7 µM; in [2] it was 30.5 µM; in assay [3], over 100 µM; in assay [4], 27.6 µM; in [5], 35.9 µM; in assay [6], 38.8 µM. Further, the TGI in [7] was determined as 40.5 µM; in [8], 42.3 µM; in assay [9], 50.9 µM; in assay [10], 31.4 µM.
For `CCOC(=O)Nc1nc2ccc(Cn3cccc3)cc2[nH]1`, the TGI in assay [1] was 41.6 µM; in assay [2] it was over 100 µM; in [3], over 56.3 µM; in assay [4], over 100 µM; in assay [5], 6.3 µM; in assay [6], over 100 µM. Also, the TGI in assay [7], in assay [8], in [9] and in assay [10] was over 100 µM each time.
For the compound `CSc1ccc(C2=NN(C(=O)c3ccc(F)cc3)C(c3ccc(F)cc3)C2)cc1` (stereo not drawn), the GI50 in assay [1] was 19.6 µM; in assay [2] it was 12.7 µM; in [3], 4.37 µM; in [4], 9.43 µM; in [5], 10.3 µM; in assay [6], 14.9 µM. The GI50 was 2.69 µM in [7], 16.9 µM in assay [8], 7.21 µM in [9] and 12.6 µM in [10]. In addition, the TGI in assay [1] was determined as 34.9 µM; in assay [2], 25.4 µM; in assay [3], 15.8 µM; in [4] it was 22.1 µM; in assay [5], 22.5 µM; in [6], 30.3 µM. The TGI in assay [7] was 13.4 µM; in assay [8], 31.1 µM; in [9] it was 19.2 µM; in assay [10] it was 25.1 µM.
`Cc1cc(I)cc(CN(C)CCCN2CCSCC2)c1O`: the GI50 is 26.4 µM in [1]; 41 µM in assay [2]; 18.8 µM in assay [3]; 17.3 µM in [4]; 29.7 µM in assay [5]; 44.7 µM in assay [6]. For the same compound, the GI50 in [7] is 28.4 µM; in assay [8] it was 35.4 µM; in [9], 76.6 µM; in assay [10] it was 26.4 µM. The TGI in assay [1] was 51.3 µM; in assay [2], over 100 µM; in assay [3] it was 43.1 µM; in [4] it was 33.2 µM; in assay [5], over 100 µM; in assay [6], over 100 µM. Further, the TGI in assay [7], in assay [8], in assay [9] and in [10] was over 100 µM throughout.
In the case of `COc1cc(C(=O)/C(C)=C/c2c[nH]c3ccccc23)cc(OC)c1OC`, the GI50 in [1] is 0.0025 µM; in assay [2], 0.00619 µM; in assay [3] it was 0.00402 µM; in assay [4] it was 0.00338 µM; in assay [5] it was 0.00334 µM; in assay [6], 0.0249 µM. The values for the GI50 in assay [7], in assay [8] and in assay [10] were 0.00544 µM, 0.00768 µM and 0.00796 µM, respectively. Also, the TGI in [1] was 0.00916 µM; in assay [2], over 100 µM; in [4], 1.89 µM; in [5], 0.0107 µM; in assay [6], over 100 µM; in assay [7] it was 10.6 µM. For the same compound, the TGI in assay [8] is 76.8 µM; in assay [9], over 100 µM; in assay [10] it was over 100 µM.
`O=C(O[C@H]1CN[C@H](C#Cc2cc3ncnc(Nc4ccc5c(ccn5Cc5cc(F)ccc5F)c4)c3s2)C1)N1CCOCC1`: the GI50 in assay [1] is 0.765 µM; in [2], 0.575 µM; in assay [3], 3.86 µM; in assay [4] it was 6.26 µM; in assay [5], 2.86 µM; in assay [6] it was 4.51 µM. The GI50 in assay [7] was 3.23 µM; in assay [8], 0.0183 µM; in assay [9], 2.57 µM; in assay [10] it was 0.339 µM. Also, the TGI in [1] was 5.2 µM; in assay [2] it was over 25 µM; in [3], 8.97 µM; in assay [4] it was 17.1 µM; in [5], 6.55 µM; in assay [6], 16.5 µM. The TGI in assay [7] stood at 8.8 µM; in assay [8], 0.106 µM; in assay [9], 12.8 µM; in [10], 7.05 µM.
Regarding `COC(=O)c1cc2c(cc1Cl)SC(N(N(C)C)S(=O)(=O)c1ccc(Br)s1)=NS2(=O)=O`, the GI50 in assay [1] was 28.8 µM; in assay [2], 24.2 µM; in [3], 21.3 µM; in assay [4], 23.2 µM; in [5], 21.6 µM; in assay [6], 19.2 µM. Further, the GI50 in assay [7] was 27.4 µM; in assay [8], 28 µM; in [9], 30.5 µM; in assay [10] it was 27.3 µM. For the same compound, the TGI in assay [1] came to 80.1 µM; in assay [2] it was 54.1 µM; in assay [3] it was 56.9 µM; in [4], 49.2 µM; in [5], 56.9 µM; in [6], 53.7 µM. Further, the TGI was 67.3 µM in assay [7], 66.7 µM in [8], over 100 µM in assay [9] and 81.3 µM in assay [10].
